Measurements: US20240158348A1, “HERBICIDAL CYCLIC AMIDES N-SUBSTITUTED WITH A HALOALKYLSULFONYLANILIDE GROUP” (FMC Corporation, priority 2021, published 2024)

Key:
Format in all cases: in vivo
[1] = test system: oat, wild (wild oat, Avena fatua); assay: Test C preemergence, wild oat; details: 0 is no effect, 100 is complete control
How it was run: (§1)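 Visual injury rating, 0 (no effect) to 100 (complete control), versus untreated controls after 10 or 12 days in the greenhouse. Compounds were formulated in non-phytotoxic solvent plus surfactant and applied either as a directed soil spray at sowing or onto emerged one- to two-leaf plants.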

[2] = test system: ragweed (common ragweed, Ambrosia artemisiifolia); assay: Test C preemergence, ragweed; details: 0 is no effect, 100 is complete control
How it was run: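 Corn, ragweed and goosegrass were sown in loam/sand and given a preemergence directed soil spray of compounds in a non-phytotoxic solvent with surfactant. Galium was sprayed postemergence at 2–10 cm height, one- to two-leaf stage. After 10 or 12 days in a greenhouse, injury was rated visually against untreated controls on a 0 (no effect) to 100 (complete control) scale.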

[3] = test system: goosegrass (Eleusine indica); assay: Test C postemergence, goosegrass; details: for Goosegrass plant response rating: 31 g ai/ha Postemergence, visual injury, 0 to 100 scale (0 no effect, 100 complete control); for Plant response rating (0 to 100 scale), Goosegrass: 125 g ai/ha Postemergence, 0 is no effect, 100 is complete control
How it was run: as §1

[4] = test system: horseweed (Erigeron canadensis); assay: Test C postemergence, horseweed; details: for Horseweed plant response rating: 31 g ai/ha Postemergence, visual injury, 0 to 100 scale (0 no effect, 100 complete control); for Plant response rating (0 to 100 scale), Horseweed: 125 g ai/ha Postemergence, 0 is no effect, 100 is complete control
How it was run: as §1

[5] = test system: corn (Zea mays); assay: Test C postemergence, corn; details: for Corn plant response rating: 31 g ai/ha Postemergence, visual injury, 0 to 100 scale (0 no effect, 100 complete control); for Plant response rating (0 to 100 scale), Corn: 125 g ai/ha Postemergence, 0 is no effect, 100 is complete control
[6] = test system: soybean (Glycine max); assay: Test C preemergence, soybean; details: 0 is no effect, 100 is complete control
How it was run: as §1

[7] = test system: blackgrass (Alopecurus myosuroides); assay: Test C preemergence, blackgrass; details: 0 is no effect, 100 is complete control
How it was run: as §1

[8] = test system: pigweed, palmer (palmer amaranth, Amaranthus palmeri); assay: Test C preemergence, palmer amaranth; details: 0 is no effect, 100 is complete control
How it was run: as §1

[9] = test system: ducksalad (Heteranthera limosa); assay: Test D flooded paddy test, ducksalad; design: key: 0 = no effect, 100 = complete control; details: 250 g ai/ha, Flood; applied to paddy water at 2-leaf stage; visual rating after 13 days; scale 0 (no effect) to 100 (complete control)
How it was run: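 2-leaf plants; flood 3 cm over soil; cpd into paddy water; depth maintained; greenhouse 13 d; visual rating vs controls, 0 = no effect, 100 = complete control; dash = no result.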

SMILES	Plant response rating (0 to 100 scale), Oat, Wild ([1]; 31 g ai/ha Preemergence)	Plant response rating (0 to 100 scale), Oat, Wild ([1]; 125 g ai/ha Preemergence)	Plant response rating (0 to 100 scale), Ragweed ([2]; 31 g ai/ha Preemergence)	Plant response rating (0 to 100 scale), Ragweed ([2]; 125 g ai/ha Preemergence)	Goosegrass plant response rating [3]	Plant response rating (0 to 100 scale), Goosegrass [3]	Horseweed plant response rating [4]	Plant response rating (0 to 100 scale), Horseweed [4]	Corn plant response rating [5]	Plant response rating (0 to 100 scale), Corn [5]	Plant response rating (0 to 100 scale), Soybean ([6]; 31 g ai/ha Preemergence)	Plant response rating (0 to 100 scale), Soybean ([6]; 125 g ai/ha Preemergence)	Plant response rating (0 to 100 scale), Blackgrass ([7]; 31 g ai/ha Preemergence)	Plant response rating (0 to 100 scale), Blackgrass ([7]; 125 g ai/ha Preemergence)	Plant response rating (0 to 100 scale), Pigweed, Palmer ([8]; 31 g ai/ha Preemergence)	Plant response rating (0 to 100 scale), Pigweed, Palmer ([8]; 125 g ai/ha Preemergence)	Plant response rating, Ducksalad [9]
Cc1c(N2CCCC(OC3CC3)C2=O)cc(N(COC(=O)C(C)(C)C)S(=O)(=O)C(F)(F)F)c(C)c1F (stereo not drawn) [Compound 37]	20	20	0	90	0	90	80	80	10	90	0	30	10	60	50	90	70
COC(=O)N(c1cc(N2CCC(OC3CC3)C2=O)c(C)cc1C)S(=O)(=O)C(F)(F)F (stereo not drawn) [Compound 16]	0	0	0	0	0	0	0	30	0	0	20	20	0	0	0	0	0
Cc1cc(C)c(N2CCC(OCC3CC3)C2=O)cc1NS(=O)(=O)C(F)(F)F (stereo not drawn) [Compound 22]	90	100	50	100	70	90	90	90	50	90	80	90	50	90	100	100	90
C#CCO/N=C1\CCN(c2cc(NS(=O)(=O)C(F)(F)F)c(C)cc2C)C1=O [Compound 13, N-[2,4-dimethyl-5-[2-oxo-3-[(2-propyn-1-yloxy)imino]-1-pyrrolidinyl]phenyl]-1,1,1-trifluoromethanesulfonamide]	100	100	50	100	70	100	70	90	100	100	80	100	90	100	100	100	100
Cc1c(NS(=O)(=O)C(F)(F)F)cc(N2CCCC(OC3CC3)C2=O)c(C)c1F (stereo not drawn) [Compound 35]	20	90	50	90	70	90	90	100	50	90	50	90	70	100	100	100	55
Cc1c(N2CCC(OC3CCC3)C2=O)cc(N(COC(=O)C(C)(C)C)S(=O)(=O)C(F)(F)F)c(C)c1F (stereo not drawn) [Compound 28]	0	20	40	100	30	70	–	–	10	30	20	80	50	60	30	80	70
Cc1cc(C)c(N2CCC(O)C2=O)cc1NS(=O)(=O)C(F)(F)F (stereo not drawn) [Compound 14]	10	60	20	60	60	90	90	90	70	90	100	100	60	90	90	100	65
Cc1c(NS(=O)(=O)C(F)(F)F)cc(N2CCC(OC3CCC3)C2=O)c(C)c1F (stereo not drawn) [Compound 25]	40	90	90	100	50	90	–	–	30	60	80	90	80	90	100	100	75
Cc1c(NS(=O)(=O)C(F)(F)F)cc(N2CCC(OC3CC3)C2=O)c(C)c1F (stereo not drawn) [Compound 26]	60	100	90	100	80	100	–	–	50	90	70	90	70	90	100	100	75
